The record followed here is patent US20250255961A1, “METHODS TO STIMULATE IMMUNE RESPONSES TO MUTANT RAS USING NUCLEATED CELLS” (STEMCELL TECHNOLOGIES CANADA INC., priority 2020, published 2025).

Assay [1] has as its system K-Ras G12V responder T cells. The assay is described as follows: IFN-γ ELISPOT: peptide-loaded HLA-A*11+ human PBMCs co-cultured with K-Ras G12V responder T cells. In kind it is cell-based.
For assay [2], the system named is K-Ras G12V responder T cells. The description is as above. As to conditions: for IFN-γ expressing K-Ras-G12V responder T cells upon co-culture: HLA-A*11+ human PBMCs SQZ-loaded with 100 μM SLP; for IFN-γ secretion by K-Ras-G12V responder T cells upon co-culture: Example 4, FIG. 4, HLA-A*11+ human PBMCs (donor 296) SQZ-loaded with 100 μM SLP. Type of assay: cell-based. The protocol: (§1) Human PBMCs from HLA-A*11^+ donor (donor 296) were prepared at a density of 10×10^6/mL, SQZ processed at room temperature through a constriction of 4.5 μm width, 10 μm length and 70 μm depth at 60 psi with 100 μM of the respective K-Ras synthetic long peptide (G12V^1-16, G12V^2-19) or with vehicle control (DMSO) in RPMI medium. Following SQZ-processing, the SQZ-loaded PMBCs were centrifuged, and the supernatant was discarded. The cells were subsequently washed once in R10 medium (RPMI+10% FCS+1% Pen/Strep), then washed twice in CTL medium (supplemented with 1% glutamine), before resuspension in fresh CTL medium (supplemented with 1% glutamine).
2×10^5 SQZ-loaded PBMCs were then placed in co-culture with 5×10^4 K-Ras G12V responder T cells (generated in transgenic mice) in an IFN-γ ELISPOT plate. As a positive control, 10 μM K-Ras G12V^7-16 peptide containing the minimal epitope was added directly to untreated PBMCs and responder cells in the ELISPOT plate (peptide spike). The plate was incubated overnight at 37° C. and then developed/quantified according to manufacturer's instructions.
as §1, with “donor” for “donor (donor 296)”, “constriction with” for “constriction of”, “peptide (K-Ras G12V^3-17, K-Ras G12V^3-42)” for “peptide (G12V^1-16, G12V^2-19)”, “medium. An irrelevant synthetic long peptide (HPV-E7.6) was used as a negative control.” for “medium.”
as §1, with “donor” for “donor (donor 296)”, “10× 10^6/mL,” for “10×10^6/mL,”, “(wild type K-Ras^1-16, G12V^1-16, wild type K-Ras^2-22, or G12V^2-22)” for “(G12V^1-16, G12V^2-19)”
as §1, with “donor” for “donor (donor 296)”, “of a single” for “of the respective”, “peptide (G12V^1-16” for “peptide (G12V^1-16, G12V^2-19)”, “or G12V^2-19), or a combination of two K-Ras synthetic long peptides which are each at 100 μM (G12V^1-16 plus G12D^1-16 or G12V^2-19 plus G12D^1-16) or” for “or with”, “glutamine). […]” for “glutamine).”

The subject of assay [3] is K-Ras G12D responder T cells. Kind of assay: IFN-γ ELISPOT: peptide-loaded HLA-A*11+ human PBMCs co-cultured with K-Ras G12D responder T cells. In kind it is cell-based, transgenic mice. The following applies: for IFN-γ expressing by K-Ras-G12D responder T cells upon co-culture: Example 1, FIG. 1, vehicle control DMSO, overnight 37° C.; for IFN-γ secretion by K-Ras-G12D responder T cells upon co-culture: Example 3, FIG. 3, HLA-A*11+ human PBMCs (donor 339) SQZ-loaded with 100 μM SLP; for IFN-γ expressing responder T cells upon co-culture: PBMCs incubated with 100 μM SLP at room temperature without SQZ (Endo-G12D). On the procedure: as §1, with “donor” for “donor (donor 296)”, “and SQZ-processed” for “SQZ processed”, “K-Ras G12D” for “K-Ras”, “(either G12D^1-16, G12D^2-19, G12D^2-22, G12D^2-29)” for “(G12V^1-16, G12V^2-19)”, “PBMCs” for “PMBCs”
2×10^5 SQZ-loaded PBMCs were then placed in co-culture with 5×10^4 K-Ras G12D responder T cells (generated in transgenic mice) in an IFN-γ ELISPOT plate. As a positive control, 10 μM K-Ras G12D^7-16 peptide containing the minimal epitope was added directly to untreated PBMCs and responder cells in the ELISPOT plate (peptide spike). The plate was incubated overnight at 37° C. and then developed/quantified according to manufacturer's instructions.
as §1, with “donor” for “donor (donor 296)”, “10×10^6/mL, and” for “10×10^6/mL,”, “(either wild type K-Ras^1-16 or K-Ras-G12D^1-16)” for “(G12V^1-16, G12V^2-19)”, “glutamine). […]” for “glutamine).”
as §1, with “339)” for “296)”, “(either wild type K-Ras^2-22 or K-Ras G12D^2-22)” for “(G12V^1-16, G12V^2-19)”, “glutamine). […]” for “glutamine).”
2×10^5 of either the SQZ-loaded PBMCs (SQZ-G12D) or SLP-incubated PBMCs (Endo-G12D), or an equal volume of the fluid phase solution (FF-G12D) were then placed in co-culture with 5×10^4 K-Ras G12D responder T cells (generated in transgenic mice) in an IFN—Y ELISPOT plate. As a positive control, 10 μM K-Ras G12D^7-16 peptide containing the minimal epitope was added directly to untreated PBMCs and responder cells in the ELISPOT plate (spike). 10 μM wild type K-Ras^7-16 peptide was added to PBMCs and responder as another […] (spike). The plate was incubated overnight at 37° C. and then developed/quantified according to manufacturer's instructions.

Where [4] appears, read: HLA-A*11+ human PBMCs SQZ-loaded with 100 μM SLP.
[5] abbreviates: Example 2, FIG. 2, HLA-A*11+ human PBMCs SQZ-loaded with 100 μM SLP, compared to vehicle control.

Entries after “also recorded” stand apart in the source; their conditions may differ.

Regarding “EYKLVVVGAVGVGKS [G12V^3-17, K-Ras G12V synthetic long peptide, residues 3-17]”, the “IFN-γ expressing K-Ras-G12V responder T cells upon co-culture” value in assay [1] (Example 5, FIG. 5, HLA-A*11+ human PBMCs SQZ-loaded with 100 μM SLP, listed as K-Ras-G12V^3-17) is given as “increased amount”; in assay [2] (Example 5, FIG. 5) it was “significant increases”.
On to “TEYKLVVVGADGVGKSALTIQ [G12D^2-22, K-Ras G12D synthetic long peptide, residues 2-22]”, for which, in assay [3] (setting [4]), the “IFN-γ expressing by K-Ras-G12D responder T cells upon co-culture” value is given as “increased amount; also recorded: significant increases”. Moreover, the “IFN-γ secretion by K-Ras-G12D responder T cells upon co-culture” value is “significantly increased” in assay [3] (compared to vehicle control) and “increased amount” in assay [3] (compared to vehicle control, listed as K-Ras-G12D^2-22).
As to “TEYKLVVVGADGVGKSALTIQLIQNHFV [G12D^2-29, K-Ras G12D synthetic long peptide, residues 2-29]”, the “IFN-γ expressing by K-Ras-G12D responder T cells upon co-culture” value in assay [3] (setting [4]) is listed as “increased amount; also recorded: significant increases”. Further, in assay [3] (Example 10, FIG. 10, HLA-A*11+ human PBMCs SQZ-loaded with 100 μM SLP (SQZ-G12D), listed as K-Ras-G12D^2-29), the “IFN-γ expressing K-Ras G12D responder T cells upon co-culture” value is on record as “significant increases; also recorded: increased amount”. Besides, the “IFN-γ expressing responder T cells upon co-culture” value in assay [3] (Example 10) is “did not result in increase”.
Regarding “VVVGADGVGK [K-Ras G12D^7-16, positive control peptide spike, reference compound]”, the “IFN-γ expressing K-Ras G12D responder T cells upon co-culture” value in assay [3] (Example 10, 10 μM peptide added directly to untreated PBMCs and responder cells (peptide spike, positive control)) is on record as “significant increases”.
On to “TEYKLVVVGAVGVGKSAL [G12V^2-19, K-Ras G12V synthetic long peptide, residues 2-19]”, for which, in assay [1] (Example 8, FIG. 8, HLA-A*11+ human PBMCs SQZ-loaded with one SLP or a combination of two SLPs, each at 100 μM), the “IFN-γ expressing K-Ras-G12V responder T cells upon co-culture” value is “significant increases”. The “IFN-γ secretion by K-Ras-G12V responder T cells upon co-culture” value in assay [2] is listed as “significantly increased”; in assay [2] (listed as K-Ras-G12V^2-19), “increased amount”.
Consider “wild type K-Ras^1-16: wild type K-Ras synthetic long peptide, residues 1-16; mutation-specificity comparator (MTEYKLVVVGAGGVGK; UniProt P01116 1-16, looked up, fragment) [reference compound]”, for which the “IFN-γ expressing K-Ras-G12D responder T cells upon co-culture” value in assay [3] (setting [5]) was “did not elicit increases”. Also, the “IFN-γ expressing K-Ras-G12V responder T cells upon co-culture” value in assay [2] (Example 6, FIG. 6, compared to vehicle control) was “did not elicit increases”.
Regarding “MTEYKLVVVGADGVGK [G12D^1-16, K-Ras G12D synthetic long peptide, residues 1-16]”, the “IFN-γ expressing by K-Ras-G12D responder T cells upon co-culture” value in assay [3] (setting [4]) was “increased amount; also recorded: significant increases”. The “IFN-γ expressing K-Ras-G12D responder T cells upon co-culture” value in assay [3] (setting [5]) is “significant increases”; in assay [3] (Example 2, FIG. 2, HLA-A*11+ human PBMCs SQZ-loaded with 100 μM SLP, compared to vehicle control, listed as K-Ras-G12D^1-16) it was “increased amount”; in assay [3] (Example 7, FIG. 7, HLA-A*11+ human PBMCs SQZ-loaded with one SLP or a combination of two SLPs, each at 100 μM) it was “significant increases”. For the same substance, the “IFN-γ expressing K-Ras G12D responder T cells upon co-culture” value in assay [3] (Example 10, FIG. 10, HLA-A*11+ human PBMCs SQZ-loaded with 100 μM SLP (SQZ-G12D), listed as K-Ras-G12D^1-16) was “significant increases; also recorded: increased amount”. Further, the “IFN-γ expressing responder T cells upon co-culture” value in assay [3] (Example 10) was “did not result in increase”.
Regarding “TEYKLVVVGADGVGKSAL [G12D^2-19, K-Ras G12D synthetic long peptide, residues 2-19]”, the “IFN-γ expressing by K-Ras-G12D responder T cells upon co-culture” value in assay [3] (setting [4]) is recorded as “increased amount; also recorded: significant increases”.
